Data from US20240199640A1, “NEGATIVE ALLOSTERIC MODULATORS OF METABOTROPIC GLUTAMATE RECEPTOR 2” (priority 2021, published 2024).
“And” between values parts separate entries of the source, which are not always exact repeats. Equal entries are not always repeated.

Biological target: T1, rat mGlu2 (Rattus norvegicus, UniProt P31421)
T1 construct: expressed in transfected cells; host or cells: HEK-293
Test: mGlu GIRK cell-based thallium flux assay, rat mGlu2
Conditions: rat mGlu2 GIRK IC50 (nM), HEK-293 cells co-expressing rat mGlu2 and GIRK; EC80 glutamate; Tl flux
Protocol: The day before the assay, GIRK cells co-expressing human mGlu3, human or rat mGlu2, as described above, were plated in black-walled, clear-bottomed, amine-coated 384-well plates at a density of 15,000 cells/20 μL/well in the assay medium (glutamine-depleted basal DMEM supplemented with 10% dialyzed FBS, 20 mM HEPES, 1 mM sodium pyruvate). Cells were incubated at 37° C. in the presence of 5% CO2. […] Cells were washed with assay buffer using a microplate washer to remove the medium, resulting in 20 μL of buffer remaining in each well. Immediately, 20 μL of 2× Thallos dye solution was added to cells, and incubated for one hour at 25° C. During the cell dye loading incubation period, a 10-point concentration serial dilution of compound was created from a 10 mM DMSO compound stock by performing a 1:3 serial dilution in DMSO using the Bravo liquid handler. The 2× compound plate was generated by transferring 0.24 μL of the diluted compound in each well to a daughter plate using an Echo acoustic liquid handler.
After dye-loading, cell plates were washed with assay buffer to remove excess extracellular dye using a microplate washer, resulting in 20 μL of buffer remaining in each well. After a ten-minute equilibration period, cell, compound and agonist plates were loaded into a Hamamatsu μCell kinetic imaging plate reader equipped with liquid handler to monitor fluorescence changes at 480 nm excitation and 540 nm emission settings. Briefly, after collection of baseline fluorescence, 20 μL of compound was added and incubated for two minutes and twenty seconds. This is immediately followed by adding 10 μL of glutamate-thallium buffer to the wells containing compound. The fluorescent signal was monitored an additional 2.5 minutes after the glutamate addition. Multiple reference wells containing no compound received either no glutamate (for a baseline reference), […] glutamate, or ECmax glutamate (for normalization to maximum response). Fluorescence was measured throughout the experiment at a frequency of 1 measurement per every 2 seconds before the glutamate addition and a frequency of 1 measurement per every 1 second after the glutamate addition. Each compound concentration series occurred one time in each plate, and replicates from two or three plates were used in each experimental run. Thallium solutions were handled and disposed of according to guidelines from the Vanderbilt University Chemical Safety department.
Data were normalized using a static ratio function (F/F0) by dividing every fluorescent measurement by the initial fluorescent value for the corresponding well. The increase in signal resulting from the glutamate/thallium addition of the second add was measured by determining the slope from 3 seconds to 13 seconds after the addition. The average of all baseline slopes (no compound, no glutamate) was determined and this value was subtracted from all other slope values. The average of all ECmax slopes was determined and this value was used to normalize the baseline-corrected slopes to a percent max value (% Emax). The % Emax values for each compound series were plotted versus the log of the concentration and fit to a 4-parameter logistical equation with no fixed parameters.
Potency is reported as the IC50 resulting from the curve fit.

T1 sequence (P31421 19-872): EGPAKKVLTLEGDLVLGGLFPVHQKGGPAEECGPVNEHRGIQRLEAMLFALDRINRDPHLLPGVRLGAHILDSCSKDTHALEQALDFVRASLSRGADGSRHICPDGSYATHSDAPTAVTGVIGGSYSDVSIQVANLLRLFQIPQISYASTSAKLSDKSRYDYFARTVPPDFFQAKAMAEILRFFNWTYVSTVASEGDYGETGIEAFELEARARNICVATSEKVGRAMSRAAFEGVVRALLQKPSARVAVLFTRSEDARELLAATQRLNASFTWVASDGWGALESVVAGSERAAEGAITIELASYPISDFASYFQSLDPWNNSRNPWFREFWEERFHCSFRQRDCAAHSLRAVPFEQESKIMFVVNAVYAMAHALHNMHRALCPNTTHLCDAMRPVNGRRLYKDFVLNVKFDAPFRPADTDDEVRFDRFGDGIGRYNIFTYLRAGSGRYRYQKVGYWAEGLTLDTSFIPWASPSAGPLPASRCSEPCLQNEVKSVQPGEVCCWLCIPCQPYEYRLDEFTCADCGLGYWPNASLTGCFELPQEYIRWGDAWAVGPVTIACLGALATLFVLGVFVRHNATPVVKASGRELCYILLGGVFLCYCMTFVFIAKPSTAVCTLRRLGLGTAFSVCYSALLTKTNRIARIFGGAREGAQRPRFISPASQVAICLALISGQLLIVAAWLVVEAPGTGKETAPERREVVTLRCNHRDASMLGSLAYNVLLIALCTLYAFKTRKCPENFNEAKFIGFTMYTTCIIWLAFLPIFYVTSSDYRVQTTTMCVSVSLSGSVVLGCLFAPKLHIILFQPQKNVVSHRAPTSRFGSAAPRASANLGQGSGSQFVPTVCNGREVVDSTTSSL

Compound | IC50
O=C1NCc2cc(OC3CN(c4ccncc4)C3)c(-c3ccc(F)cc3)cc21 [Compound 33, 6-(4-fluorophenyl)-5-((1-(pyridin-4-yl)azetidin-3-yl)oxy)isoindolin-1-one] | > 10000 nM
Cc1ncc(S(=O)(=O)N2CC(Oc3cc4c(cc3-c3ccc(F)cc3)C(=O)NC4)C2)s1 [Compound 72, 6-(4-fluorophenyl)-5-((1-((2-methylthiazol-5-yl)sulfonyl)azetidin-3-yl)oxy)isoindolin-1-one] | 2140 nM
Cn1ccc(COc2cc3c(cc2-c2ccc4c(c2)OCO4)C(=O)NC3)n1 [Compound 55, 6-(benzo[d][1,3]dioxol-5-yl)-5-((1-methyl-1H-pyrazol-3-yl)methoxy)isoindolin-1-one] | 1190 nM and 362 nM
Cn1ccc(COc2cc3c(cc2-c2cc(F)nc(F)c2)C(=O)NC3)n1 [Compound 41, 6-(2,6-difluoropyridin-4-yl)-5-((1-methyl-1H-pyrazol-3-yl)methoxy)isoindolin-1-one] | > 10000 nM
O=C1NCc2cc(OC3CN(C(=O)c4cccc(C(F)(F)F)c4)C3)c(-c3ccc(F)cc3)cc21 [Compound 66, 6-(4-fluorophenyl)-5-((1-(3-(trifluoromethyl)benzoyl)azetidin-3-yl)oxy)isoindolin-1-one] | 7540 nM and > 30000 nM
CC(Oc1cc2c(cc1-c1ccc(F)nc1)C(=O)NC2)c1ccncc1 (stereo not drawn) [Compound 40, 6-(6-fluoropyridin-3-yl)-5-(1-(pyridin-4-yl)ethoxy)isoindolin-1-one] | > 10000 nM
Cc1csc(C(C)Oc2cc3c(cc2-c2ccc(F)cc2)C(=O)NC3)n1 (stereo not drawn) [Compound 29, 6-(4-fluorophenyl)-5-(1-(4-methylthiazol-2-yl)ethoxy)isoindolin-1-one] | 1690 nM
Cn1ccc(COc2cc3c(cc2-c2cnn(C(F)F)c2)C(=O)NC3)n1 [Compound 50, 6-(1-(difluoromethyl)-1H-pyrazol-4-yl)-5-((1-methyl-1H-pyrazol-3-yl)methoxy)isoindolin-1-one] | 2360 nM
Cn1cc(-c2cc3c(cc2OCc2ccn(C)n2)CNC3=O)cn1 [Compound 46, 5-((1-methyl-1H-pyrazol-3-yl)methoxy)-6-(1-methyl-1H-pyrazol-4-yl)isoindolin-1-one] | > 10000 nM
CC(Oc1cc2c(cc1-c1ccc(OC(F)(F)F)cc1)C(=O)NC2)c1ccncc1 (stereo not drawn) [Compound 39, 5-(1-(pyridin-4-yl)ethoxy)-6-(4-(trifluoromethoxy)phenyl)isoindolin-1-one] | > 10000 nM
O=C1NCc2cc(OC3CN(S(=O)(=O)c4ccc5cnccc5c4)C3)c(-c3ccc(F)cc3)cc21 [Compound 75, 6-(4-fluorophenyl)-5-((1-(isoquinolin-6-ylsulfonyl)azetidin-3-yl)oxy)isoindolin-1-one] | > 10000 nM
Cc1csc(C)c1S(=O)(=O)N1CC(Oc2cc3c(cc2-c2ccc(F)cc2)C(=O)NC3)C1 [Compound 76, 5-((1-((2,4-dimethylthiophen-3-yl)sulfonyl)azetidin-3-yl)oxy)-6-(4-fluorophenyl)isoindolin-1-one] | 1000 nM
Cn1ccc(OCc2cc3c(cc2-c2ccc(F)cc2)C(=O)NC3)n1 [Compound 64, 6-(4-fluorophenyl)-5-(((1-methyl-1H-pyrazol-3-yl)oxy)methyl)isoindolin-1-one] | 2930 nM and 582 nM
O=C1NCc2cc(OC3CN(Cc4ccc(C(F)(F)F)o4)C3)c(-c3ccc(F)cc3)cc21 [Compound 81, 6-(4-fluorophenyl)-5-((1-((5-(trifluoromethyl)furan-2-yl)methyl)azetidin-3-yl)oxy)isoindolin-1-one] | 1670 nM
[2H]C([2H])(Oc1cc2c(cc1-c1cc(F)cc(C#N)c1)C(=O)NC2)c1ccc(C)nc1 [Compound 59, 3-fluoro-5-(6-((6-methylpyridin-3-yl)methoxy-d2)-3-oxoisoindolin-5-yl)benzonitrile] | > 10000 nM
CC(Oc1cc2c(cc1-c1ccc(F)cc1F)C(=O)NC2)c1ccncc1 (stereo not drawn) [Compound 28, 6-(2,4-difluorophenyl)-5-(1-(pyridin-4-yl)ethoxy)isoindolin-1-one] | 305 nM
O=C1NCc2cc(Oc3ccncc3)c(-c3ccc(F)cc3)cc21 [Compound 31, 6-(4-fluorophenyl)-5-(pyridin-4-yloxy)isoindolin-1-one] | 1160 nM

Compound | IC50
CC(Oc1cc2c(cc1-c1ccc(N3CCOCC3)cc1)C(=O)NC2)c1ccncc1 (stereo not drawn) [Compound 38, 6-(4-morpholinophenyl)-5-(1-(pyridin-4-yl)ethoxy)isoindolin-1-one] | > 10000 nM
Cc1ncc(COc2cc3c(cc2-c2ccc(F)cc2)C(=O)NC3)s1 [Compound 26, 6-(4-fluorophenyl)-5-((2-methylthiazol-5-yl)methoxy)isoindolin-1-one] | 92 nM
[2H]C([2H])(Oc1cc2c(cc1-c1ccc(F)cc1)C(=O)NC2)c1cnn(C)c1 [Compound 30, 6-(4-fluorophenyl)-5-((1-methyl-1H-pyrazol-4-yl)methoxy-d2)isoindolin-1-one] | 418 nM
Cc1nc(CN2CC(Oc3cc4c(cc3-c3ccc(F)cc3)C(=O)NC4)C2)cs1 [Compound 79, 6-(4-fluorophenyl)-5-((1-((2-methylthiazol-4-yl)methyl)azetidin-3-yl)oxy)isoindolin-1-one] | 2540 nM
N#Cc1cccc(C(=O)N2CC(Oc3cc4c(cc3-c3ccc(F)cc3)C(=O)NC4)C2)c1 [Compound 70, 3-(3-((6-(4-fluorophenyl)-1-oxoisoindolin-5-yl)oxy)azetidine-1-carbonyl)benzonitrile] | 4780 nM and > 30000 nM
O=C1NCc2cc(OC3CN(C(=O)c4ccno4)C3)c(-c3ccc(F)cc3)cc21 [Compound 69, 6-(4-fluorophenyl)-5-((1-(isoxazole-5-carbonyl)azetidin-3-yl)oxy)isoindolin-1-one] | > 10000 nM
Cn1ccc(COc2cc3c(cc2-c2ccc(OC(F)(F)F)cc2)C(=O)NC3)n1 [Compound 43, 5-((1-methyl-1H-pyrazol-3-yl)methoxy)-6-(4-(trifluoromethoxy)phenyl)isoindolin-1-one] | 2370 nM
CC(Oc1cc2c(cc1-c1ccc(OC(F)F)cc1F)C(=O)NC2)c1ccncc1 (stereo not drawn) [Compound 37, 6-(4-(difluoromethoxy)-2-fluorophenyl)-5-(1-(pyridin-4-yl)ethoxy)isoindolin-1-one] | 781 nM
O=C1NCc2cc(Oc3ccncc3)c(-c3ccc(F)cc3F)cc21 [Compound 32, 6-(2,4-difluorophenyl)-5-(pyridin-4-yloxy)isoindolin-1-one] | 151 nM
Cc1cc(CN2CC(Oc3cc4c(cc3-c3ccc(F)cc3)C(=O)NC4)C2)no1 [Compound 80, 6-(4-fluorophenyl)-5-((1-((5-methylisoxazol-3-yl)methyl)azetidin-3-yl)oxy)isoindolin-1-one] | 1990 nM
Cn1ccc(COc2cc3c(cc2-c2ccc4c(c2)OCCO4)C(=O)NC3)n1 [Compound 56, 6-(2,3-dihydrobenzo[b][1,4]dioxin-6-yl)-5-((1-methyl-1H-pyrazol-3-yl)methoxy)isoindolin-1-one] | 2930 nM and 7540 nM
Cc1c(S(=O)(=O)N2CC(Oc3cc4c(cc3-c3ccc(F)cc3)C(=O)NC4)C2)cnn1C(F)F [Compound 73, 5-((1-((1-(difluoromethyl)-5-methyl-1H-pyrazol-4-yl)sulfonyl)azetidin-3-yl)oxy)-6-(4-fluorophenyl)isoindolin-1-one] | 8040 nM
O=C1NCc2cc(OC3CN(Cc4ccc5ncccc5c4)C3)c(-c3ccc(F)cc3)cc21 [Compound 83, 6-(4-fluorophenyl)-5-((1-(quinolin-6-ylmethyl)azetidin-3-yl)oxy)isoindolin-1-one] | 5000 nM
Cc1nn(C)cc1-c1cc2c(cc1OCc1ccn(C)n1)CNC2=O [Compound 45, 6-(1,3-dimethyl-1H-pyrazol-4-yl)-5-((1-methyl-1H-pyrazol-3-yl)methoxy)isoindolin-1-one] | 3820 nM
CC(Oc1cc2c(cc1-c1ccc(F)cc1)C(=O)NC2)c1ccncc1 (stereo not drawn) [Compound 27, 6-(4-fluorophenyl)-5-(1-(pyridin-4-yl)ethoxy)isoindolin-1-one] | 321 nM
Cn1ccc(N2CC(Oc3cc4c(cc3-c3ccc(F)cc3)C(=O)NC4)C2)n1 [Compound 71, 6-(4-fluorophenyl)-5-((1-(1-methyl-1H-pyrazol-3-yl)azetidin-3-yl)oxy)isoindolin-1-one] | 1960 nM
